Reference: patent US20090269394A1, “METHODS AND COMPOSITIONS FOR TREATING ONCHOMYCOSIS” (priority 2008, published 2009)
Converted amounts (≈) assume the structure as drawn. Like-named read-outs stand apart in the source and are kept apart here.

Key:
[1] = system: Trichophyton soundanense; experiment: MIC against rare onychomycosis pathogens (CLSI M 38-A); type: cell-based; settings: 3 isolates; NB-002 as μg CPC/ml
Text: (§1) Methods: All fungi were from patients, many of which had onychomycosis or another tinea infection.

[2] = system: Chaetomium spp.; experiment: as above; type: cell-based; settings: 3 isolates; NB-002 as μg CPC/ml
Text: as §1

[3] = system: Curvularia spp.; experiment: as above; type: cell-based; settings: 3 isolates; NB-002 as μg CPC/ml
Text: as §1

[4] = system: Epicoccum nigrum; experiment: as above; type: cell-based; settings: 3 isolates; NB-002 as μg CPC/ml
Text: as §1

[5] = system: Acremonium spp.; experiment: as above; type: cell-based; settings: 5 isolates; NB-002 as μg CPC/ml
Text: as §1

[6] = system: Trichophyton verrucosum; experiment: as above; type: cell-based; settings: 3 isolates; NB-002 as μg CPC/ml
Text: as §1

[7] = system: Phoma sp.; experiment: as above; type: cell-based; settings: 3 isolates; NB-002 as μg CPC/ml
Text: as §1

[8] = system: Alternaria spp.; experiment: as above; type: cell-based; settings: 3 isolates; NB-002 as μg CPC/ml
Text: as §1

[9] = system: Aspergillus spp.; experiment: as above; type: cell-based; settings: 5 isolates; NB-002 as μg CPC/ml
Text: as §1

[10] = system: T. rubrum; experiment: Time-kill experiments on mycelia and microconidia; type: cell-based, Trichophyton rubrum; settings: 16×MIC, up to 24 hours, nongrowth conditions (FIG. 10)
Procedure: Time-kill experiments. […] Part of the conidial suspension was pelleted and resuspended in RPMI 1640 medium and grown for 16-18 hours overnight at room temperature to allow germination of microconidia. After germination, the hyphae were collected by centrifugation and resuspended in distilled water. […] Colony-forming units were counted after four days of incubation at 35° C.

[11] = system: Epidermophyton floccosum; experiment: MIC/MFC microtiter broth dilution; type: cell-based; settings: n = 6 isolates; NB-002 as μg CPC/ml
[12] = system: Trichophyton rubrum; type: cell-based; settings: 10^7 conidia plated, drug plate 0.125 μg/ml
[13] = system: Candida albicans isolates; experiment: MIC/MFC microtiter broth dilution; type: cell-based; settings: NB-002 as μg CPC/ml; for MIC90: Candida albicans, read-out: MIC90
[14] = system: Trichophyton mentagrophytes; experiment: MIC/MFC microtiter broth dilution; type: cell-based; settings: for MIC50 / MIC90: Trichophyton mentagrophytes; for MFC50 / MFC90 / MIC range: n = 14 isolates, NB-002 as μg CPC/ml
[15] = system: Trichophyton rubrum; experiment: microbe, parasite or virus in culture; type: cell-based
Procedure: (§2) Phenotypically resistant isolates were tested for MICs and compared to parental MICs.

[16] = system: Epidermophyton floccosum; experiment: microbe, parasite or virus in culture; type: cell-based; settings: read-out: Final MIC
Procedure: as §2

[17] = system: Trichophyton mentagrophytes; experiment: microbe, parasite or virus in culture; type: cell-based
Procedure: as §2

[18] = system: Scedosporium spp.; experiment: MIC against rare onychomycosis pathogens (CLSI M 38-A); type: cell-based; settings: 5 isolates; NB-002 as μg CPC/ml
Text: as §1

[19] = system: Paecilomyces spp.; experiment: as above; type: cell-based; settings: 4 isolates; NB-002 as μg CPC/ml
Text: as §1

[20] = system: Trichophyton mentagrophytes; type: cell-based; settings: 10^7 conidia plated; NBD012-d; drug plate 0.0625 μg/ml
[21] = system: M. audouinii; experiment: MIC against species that cause tinea capitis; type: cell-based; settings: M. audouinii n = 10
[22] = system: Trichophyton tonsurans; experiment: MIC/MFC microtiter broth dilution; type: cell-based
[23] = system: T. violaceum; experiment: MIC against species that cause tinea capitis; type: cell-based; settings: T. violaceum n = 10
[24] = system: Microsporum canis; experiment: MIC/MFC microtiter broth dilution; type: cell-based
[25] = Azole-Resistant isolates (n = 24)
[26] = Azole-Susceptible isolates (n = 10)
[27] = read-out: Final MIC, isolate NBD031-a, selected on NB-002 drug plate 16 μg/ml
[28] = read-out: Final MIC, isolate NBD031-b, selected on itraconazole drug plate 0.125 μg/ml
[29] = read-out: Final MIC, isolate NBD031-c, selected on terbinafine drug plate 0.125 μg/ml
[30] = read-out: Final MIC, isolate NBD012-a, selected on NB-002 drug plate 8 μg/ml
[31] = read-out: Final MIC, isolate NBD012-b, selected on NB-002 drug plate 16 μg/ml
[32] = read-out: Final MIC, isolate NBD012-c, selected on NB-002 drug plate 32 μg/ml
[33] = read-out: Final MIC, isolate NBD012-d, selected on terbinafine drug plate 0.0625 μg/ml
[34] = read-out: Final MIC, isolate NBD013-a, selected on itraconazole drug plate […]
[35] = read-out: Final MIC, isolate NBD014-a, selected on NB-002 drug plate 32 μg/ml
[36] = T. tonsurans (n = 6), NB-002 as μg CPC/ml
[37] = T. tonsurans n = 10 (tinea capitis species)
[38] = M. canis (n = 5), NB-002 as μg CPC/ml
[39] = M. canis n = 10 (tinea capitis species)

## CCC(C)n1ncn(-c2ccc(N3CCN(c4ccc(OCC5COC(Cn6cncn6)(c6ccc(Cl)cc6Cl)O5)cc4)CC3)cc2)c1=O (stereo not shown) [Itraconazole]
[1]
  MIC range: 0.125 to 0.25 µg/mL
[2]
  MIC range: 0.5 to 1 µg/mL
[3]
  MIC range: 0.125 to 0.25 µg/mL
[4]
  MIC range: 0.25 to 0.5 µg/mL
[5]
  MIC range: >8 µg/mL
[6]
  MIC range: 0.06 to 0.125 µg/mL
[7]
  MIC range: 0.06 to 0.5 µg/mL
[8]
  MIC range: 0.25 to 0.5 µg/mL
[9]
  MIC range: 0.06 to 1 µg/mL
[10]
  reduction of colony counts / activity on mycelia and microconidia: no activity
[11]
  MIC range: 0.125 to 0.5 µg/mL
[12]; NBD031-b
  # CFU recovered: 2
[13]; [25]
  MFC90: >16 µg/mL
  MIC90: > 16 µg/mL
[13]; [26]
  MFC90: >16 µg/mL
  MIC90: 0.5 µg/mL (≈ 0.709 µM)
[14]
  MIC50: 0.125 µg/mL (≈ 0.177 µM)
  MIC90: 0.5 µg/mL (≈ 0.709 µM)
  MFC50: 8 µg/mL (≈ 11.3 µM)
  MFC90: >16 µg/mL
  MIC range: 0.0625 to 0.5 µg/mL
[15]; [27]
  MIC: 0.0625 µg/mL (≈ 0.0886 µM)
[15]; [28]
  MIC: 0.0625 µg/mL (≈ 0.0886 µM)
[15]; [29]
  MIC: 0.0313 µg/mL (≈ 0.0444 µM)
[16]
  MIC: 0.25 µg/mL (≈ 0.354 µM)
[17]; [30]
  MIC: 0.0625 µg/mL (≈ 0.0886 µM)
[17]; [31]
  MIC: 0.0625 µg/mL (≈ 0.0886 µM)
[17]; [32]
  MIC: 0.0625 µg/mL (≈ 0.0886 µM)
[17]; [33]
  MIC: 0.0625 µg/mL (≈ 0.0886 µM)
[17]; [34]
  MIC: 0.125 µg/mL (≈ 0.177 µM)
[17]; [35]
  MIC: 0.0625 µg/mL (≈ 0.0886 µM)

## CN(C/C=C/C#CC(C)(C)C)Cc1cccc2ccccc12 [Terbinafine]
[1]
  MIC range: ≦0.004 ug/ml
[2]
  MIC range: 1 to 2 µg/mL
[3]
  MIC range: 0.03 to 1 µg/mL
[4]
  MIC range: 0.03 to 0.06 µg/mL
[18]
  MIC range: >2 µg/mL
[5]
  MIC range: 0.125 to 1 µg/mL
[19]
  MIC range: 0.25 to 0.5 µg/mL
[6]
  MIC range: ≦0.004-0.015 ug/ml
[7]
  MIC range: 0.03 µg/mL (≈ 0.103 µM)
[8]
  MIC range: 1 to 2 µg/mL
[9]
  MIC range: 0.03 to 0.25 µg/mL
[20]
  # CFU recovered: 2
[21]
  MIC50: 0.06 µg/mL (≈ 0.206 µM)
  MIC90: 0.06 µg/mL (≈ 0.206 µM)
[21]; in µg/mL
  MIC range: 0.03-0.06
[10]
  reduction of colony counts / activity on mycelia and microconidia: no activity
[11]
  MFC Range: 0.0313 to 1 µg/mL
  MIC range: 0.0625 to 0.25 µg/mL
[12]; NBD031-c
  # CFU recovered: 1
[13]; [25]
  MFC90: >1 µg/mL
  MIC90: > 1 µg/mL
[13]; [26]
  MFC90: >1 µg/mL
  MIC90: > 1 µg/mL
[22]; [36]
  MFC Range: 0.06 to 0.12 µg/mL
  MIC range: 0.008 to 0.015 µg/mL
[22]; [37]
  MIC50: 0.016 µg/mL (≈ 0.0549 µM)
  MIC90: 0.016 µg/mL (≈ 0.0549 µM)
[22]; T. tonsurans n = 10 (tinea capitis species), in µg/mL
  MIC range: 0.008-0.016
[14]
  MIC90: 0.125 µg/mL (≈ 0.429 µM)
  MFC50: 0.25 µg/mL (≈ 0.858 µM)
  MFC90: >1 µg/mL
  MIC range: 0.0313 to 0.25 µg/mL
[14]; read-out: MIC50
  MIC50: 0.0313 µg/mL (≈ 0.107 µM)
[23]
  MIC50: 0.03 µg/mL (≈ 0.103 µM)
  MIC90: 0.03 µg/mL (≈ 0.103 µM)
[23]; in µg/mL
  MIC range: 0.008-0.03
[15]; [27]
  MIC: 0.016 µg/mL (≈ 0.0549 µM)
[15]; [28]
  MIC: 0.016 µg/mL (≈ 0.0549 µM)
[15]; [29]
  MIC: 0.016 µg/mL (≈ 0.0549 µM)
[16]
  MIC: 0.016 µg/mL (≈ 0.0549 µM)
[17]; [30]
  MIC: 0.031 µg/mL (≈ 0.106 µM)
[17]; [31]
  MIC: 0.031 µg/mL (≈ 0.106 µM)
[17]; [32]
  MIC: 0.016 µg/mL (≈ 0.0549 µM)
[17]; [33]
  MIC: 0.031 µg/mL (≈ 0.106 µM)
[17]; [34]
  MIC: 0.016 µg/mL (≈ 0.0549 µM)
[17]; [35]
  MIC: 0.016 µg/mL (≈ 0.0549 µM)
[24]; [38]
  MFC Range: 0.06 to 0.12 µg/mL
  MIC range: 0.004 to 0.03 µg/mL
[24]; [39]
  MIC50: 0.06 µg/mL (≈ 0.206 µM)
  MIC90: 0.06 µg/mL (≈ 0.206 µM)
[24]; M. canis n = 10 (tinea capitis species), in µg/mL
  MIC range: 0.06
